In patent publication US6090829A, “Method for treating excessive aggression” (Eli Lilly and Company, priority 1998, dated 2000):

How the values were obtained:
D2 receptor subtype = test: pharmacological studies at the D2 receptor subtype
m4 receptors = test: cAMP formation in CHO m4 cells treated with pertussis toxin; assay type: cell-based
Text: Muscarinic agonists stimulate the formation of cAMP up to 10 fold in CHO m4 cells treated with pertussisi toxin and the pharmacology is consistent with the mediation by m4 receptors. Eckols K. Soc. Neurosci Abstr., 21:2040 (1995).

[1] = target: 3H-oxotremorine-M binding (muscarinic receptors); test: 3H-oxotremorine-M binding inhibition; conditions: radioligand 3H-oxotremorine-M; read-out: inhibition constant (Ki) for binding of 3H-oxotremorine-M

## CCCCCCOc1nsnc1C1=CCCN(C)C1 [xanomeline, 3-(4-hexyloxy-1,2,5-thiadiazol-3-yl)-1,2,5,6-tetrahydro-1-methylpyridine]
D2 receptor subtype
  activity at the D2 receptor subtype: active
m4 receptors
  stimulation of the formation of cAMP: efficaciously and potently stimulated the formation of cAMP
[1]
  Ki: 2 nM
